{"source": "patent US20060159777A1", "about": "“Aqueous acaricidal solution” (SOLVAY (SOCIETE ANONYME), priority 2002, published 2006)", "key": {"[1]": {"system": "dermatophagoides pteronyssinus", "procedure": "Acarids (dermatophagoides pteronyssinus) originating from a laboratory strain raised on a substrate consisting of a 50/50 (mass/mass) mixture of wheatgerm and of brewer's yeast as flakes calibrated by sieving (fragments of less than 1 mm in size) were used. The temperature was between 23 and 25° C. and the relative humidity was maintained at 75% by placing in the presence of a saturated aqueous ammonium sulphate solution ([NH4)2SO4]); the strain was conserved in the dark.\nPieces of standard cotton wool (150 g/m^2) were pre-infested with approximately 200 acarids of all stages.\nThe pieces of cotton wool were then treated by sprinkling with an aqueous solution obtained by mixing 10, 30 or 50 g/l of sodium bicarbonate into water.\nTwo rates of application of the solution were used: 30 and 50 ml/m^2.\nThe sodium bicarbonate solution was sprayed and projected evenly and precisely over the cotton wool surfaces.\nThe mortality of the acarids was noted after 15 min, 1 h, 2 h, 4 h and 24 h.\nA control batch of acarids was monitored in parallel so as to determine the natural mortality of the acarids subjected to spraying with the same volume of water.\nEach experimental series was repeated three times and the means of the mortality results obtained were taken."}, "[2]": {"system": "dermatophagoides pteronyssinus", "conditions": "approximately 200 acarids deposited", "procedure": "The procedure was carried out as in example 1, except that the acaricidal aqueous solution was not applied by sprinkling, but the pieces of standard cotton wool (150 g/m^2) were immersed in baths of sodium bicarbonate solution.\nThree sodium bicarbonate concentrations were used: 10, 30 and 50 g/l.\nAfter drying of the textiles, approximately 200 acarids of all stages were deposited thereon and the acarid mortality was measured as a function of time.\nThe acarid mortality was noted after 3 and 6 weeks.\nEach experimental series was also repeated three times and the means of the mortality results obtained were taken."}}, "note": "Like-named read-outs stand apart in the source and are kept apart here."}
{"molecule": "O=C([O-])O.[Na+]", "note": "[Sodium bicarbonate, sodium bicarbonate]", "values": [{"measurement": "% mortality", "setting": "[1]; 10 g bicarb/1, 30 ml/m^2 (0.3 g bicarb/m^2), contact time 15 minutes", "result": 0.0, "unit": "%"}, {"measurement": "% mortality", "setting": "[1]; 10 g bicarb/1, 30 ml/m^2 (0.3 g bicarb/m^2), contact time 1 hour", "result": 0.0, "unit": "%"}, {"measurement": "% mortality", "setting": "[1]; 10 g bicarb/1, 30 ml/m^2 (0.3 g bicarb/m^2), contact time 2 hours", "result": 0.2, "unit": "%"}, {"measurement": "% mortality", "setting": "[1]; 10 g bicarb/1, 30 ml/m^2 (0.3 g bicarb/m^2), contact time 4 hours", "result": 0.5, "unit": "%"}, {"measurement": "% mortality", "setting": "[1]; 10 g bicarb/1, 30 ml/m^2 (0.3 g bicarb/m^2), contact time 24 hours", "result": 18.5, "unit": "%"}, {"measurement": "% mortality", "setting": "[1]; 10 g bicarb/1, 50 ml/m^2 (0.5 g bicarb/m^2), contact time 15 minutes", "result": 0.0, "unit": "%"}, {"measurement": "% mortality", "setting": "[1]; 10 g bicarb/1, 50 ml/m^2 (0.5 g bicarb/m^2), contact time 1 hour", "result": 0.0, "unit": "%"}, {"measurement": "% mortality", "setting": "[1]; 10 g bicarb/1, 50 ml/m^2 (0.5 g bicarb/m^2), contact time 2 hours", "result": 2.1, "unit": "%"}, {"measurement": "% mortality", "setting": "[1]; 10 g bicarb/1, 50 ml/m^2 (0.5 g bicarb/m^2), contact time 4 hours", "result": 20.9, "unit": "%"}, {"measurement": "% mortality", "setting": "[1]; 10 g bicarb/1, 50 ml/m^2 (0.5 g bicarb/m^2), contact time 24 hours", "result": 35.8, "unit": "%"}, {"measurement": "% mortality", "setting": "[1]; 30 g bicarb/1, 30 ml/m^2 (0.9 g bicarb/m^2), contact time 15 minutes", "result": 0.0, "unit": "%"}, {"measurement": "% mortality", "setting": "[1]; 30 g bicarb/1, 30 ml/m^2 (0.9 g bicarb/m^2), contact time 1 hour", "result": 0.0, "unit": "%"}, {"measurement": "% mortality", "setting": "[1]; 30 g bicarb/1, 30 ml/m^2 (0.9 g bicarb/m^2), contact time 2 hours", "result": 0.0, "unit": "%"}, {"measurement": "% mortality", "setting": "[1]; 30 g bicarb/1, 30 ml/m^2 (0.9 g bicarb/m^2), contact time 4 hours", "result": 0.7, "unit": "%"}, {"measurement": "% mortality", "setting": "[1]; 30 g bicarb/1, 30 ml/m^2 (0.9 g bicarb/m^2), contact time 24 hours", "result": 19.7, "unit": "%"}, {"measurement": "% mortality", "setting": "[1]; 30 g bicarb/1, 50 ml/m^2 (1.5 g bicarb/m^2), contact time 15 minutes", "result": 0.0, "unit": "%"}, {"measurement": "% mortality", "setting": "[1]; 30 g bicarb/1, 50 ml/m^2 (1.5 g bicarb/m^2), contact time 1 hour", "result": 0.0, "unit": "%"}, {"measurement": "% mortality", "setting": "[1]; 30 g bicarb/1, 50 ml/m^2 (1.5 g bicarb/m^2), contact time 2 hours", "result": 3.4, "unit": "%"}, {"measurement": "% mortality", "setting": "[1]; 30 g bicarb/1, 50 ml/m^2 (1.5 g bicarb/m^2), contact time 4 hours", "result": 25.1, "unit": "%"}, {"measurement": "% mortality", "setting": "[1]; 30 g bicarb/1, 50 ml/m^2 (1.5 g bicarb/m^2), contact time 24 hours", "result": 39.9, "unit": "%"}, {"measurement": "% mortality", "setting": "[1]; 50 g bicarb/1, 30 ml/m^2 (1.5 g bicarb/m^2), contact time 15 minutes", "result": 0.0, "unit": "%"}, {"measurement": "% mortality", "setting": "[1]; 50 g bicarb/1, 30 ml/m^2 (1.5 g bicarb/m^2), contact time 1 hour", "result": 0.0, "unit": "%"}, {"measurement": "% mortality", "setting": "[1]; 50 g bicarb/1, 30 ml/m^2 (1.5 g bicarb/m^2), contact time 2 hours", "result": 0.0, "unit": "%"}, {"measurement": "% mortality", "setting": "[1]; 50 g bicarb/1, 30 ml/m^2 (1.5 g bicarb/m^2), contact time 4 hours", "result": 5.2, "unit": "%"}, {"measurement": "% mortality", "setting": "[1]; 50 g bicarb/1, 30 ml/m^2 (1.5 g bicarb/m^2), contact time 24 hours", "result": 88.0, "unit": "%"}, {"measurement": "% mortality", "setting": "[1]; 50 g bicarb/1, 50 ml/m^2 (2.5 g bicarb/m^2), contact time 15 minutes", "result": 0.0, "unit": "%"}, {"measurement": "% mortality", "setting": "[1]; 50 g bicarb/1, 50 ml/m^2 (2.5 g bicarb/m^2), contact time 1 hour", "result": 0.0, "unit": "%"}, {"measurement": "% mortality", "setting": "[1]; 50 g bicarb/1, 50 ml/m^2 (2.5 g bicarb/m^2), contact time 2 hours", "result": 2.8, "unit": "%"}, {"measurement": "% mortality", "setting": "[1]; 50 g bicarb/1, 50 ml/m^2 (2.5 g bicarb/m^2), contact time 4 hours", "result": 58.9, "unit": "%"}, {"measurement": "% mortality", "setting": "[1]; 50 g bicarb/1, 50 ml/m^2 (2.5 g bicarb/m^2), contact time 24 hours", "result": 95.7, "unit": "%"}, {"measurement": "Survivors", "setting": "[2]; immersion bath 10 g/l, after 3 weeks", "result": 212.8}, {"measurement": "Survivors", "setting": "[2]; immersion bath 10 g/l, after 6 weeks", "result": 818.3}, {"measurement": "Survivors", "setting": "[2]; immersion bath 30 g/l, after 3 weeks", "result": 153.5}, {"measurement": "Survivors", "setting": "[2]; immersion bath 30 g/l, after 6 weeks", "result": 245.0}, {"measurement": "Survivors", "setting": "[2]; immersion bath 50 g/l, after 3 weeks", "result": 53.5}, {"measurement": "Survivors", "setting": "[2]; immersion bath 50 g/l, after 6 weeks", "result": 143.0}]}
